Assay results as given in paper PMC11956017, “Design of Benzyl-triazolopyrimidine-Based NADPH Oxidase Inhibitors Leads to the Discovery of a Potent Dual Covalent NOX2/MAOB Inhibitor” (Journal of Medicinal Chemistry, 2025).
Values joined by “and” are separate entries in the source; they are usually repeats but may differ in a detail not shown here. Equal values may be shown once.

What was measured:
[1] = molecular target: T1, human NOX5 (Homo sapiens, UniProt Q96PH1); assay: Human NOX5 isolated membranes, Amplex Red/horseradish peroxidase coupled assay; assay type: biochemical; settings: membrane-embedded, 40 μM NADPH; for IC50: read-out: IC50 on human NOXs, NOX5 (AMPLEX RED)
T1 construct: expressed in transfected cells; host or cells: HEK293 F cells, transient transfection (pEG BacMam vector); isolated membranes
T1 sequence (Q96PH1 1-719 isoform Q96PH1-4): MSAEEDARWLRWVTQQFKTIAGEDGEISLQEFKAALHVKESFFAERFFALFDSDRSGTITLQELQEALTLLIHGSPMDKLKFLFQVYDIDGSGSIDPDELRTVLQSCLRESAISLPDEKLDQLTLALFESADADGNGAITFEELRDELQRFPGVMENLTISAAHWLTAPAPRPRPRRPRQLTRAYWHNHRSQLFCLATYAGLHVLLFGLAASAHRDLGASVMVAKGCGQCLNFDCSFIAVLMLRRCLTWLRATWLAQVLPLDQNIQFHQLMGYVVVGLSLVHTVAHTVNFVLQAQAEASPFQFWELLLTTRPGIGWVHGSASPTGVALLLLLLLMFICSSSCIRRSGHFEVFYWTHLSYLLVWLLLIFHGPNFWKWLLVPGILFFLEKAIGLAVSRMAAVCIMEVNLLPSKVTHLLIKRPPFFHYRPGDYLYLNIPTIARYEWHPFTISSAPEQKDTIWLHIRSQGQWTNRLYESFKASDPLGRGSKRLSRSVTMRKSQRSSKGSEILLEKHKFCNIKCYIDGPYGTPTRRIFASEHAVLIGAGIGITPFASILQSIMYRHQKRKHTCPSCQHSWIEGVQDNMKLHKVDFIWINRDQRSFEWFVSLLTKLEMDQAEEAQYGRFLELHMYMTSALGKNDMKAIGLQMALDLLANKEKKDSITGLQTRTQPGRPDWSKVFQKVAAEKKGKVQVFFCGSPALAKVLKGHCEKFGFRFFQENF
Protocol: Activity assays for IC50 determinations were performed as previously described[40],[42] with modifications for covalent inhibitors. […] The estimated final protein concentrations based on the heme’s absorbance (ε414 nm = 131,000 M^–1 cm^–1) were 10–20 nM. Compounds were incubated for 1 h at 25 °C at varying concentrations, and reactions were initiated with 40 μM NADPH. Fluorescence was measured using a ClarioStar plate reader (excitation 572 nm/emission 583 nm).

[2] = molecular target: NOX2 (Homo sapiens, UniProt P04839); assay: Human NOX2 isolated membranes, MCLA assay; assay type: biochemical; design: NOX2 was expressed as native protein in X-CGD PLB-985 cells transduced with the RD114 pseudotyped MFGS-NOX2 vector; expressed in transfected cells; host or cells: X-CGD PLB-985 cells transduced with MFGS-NOX2; isolated membranes; Cytosolic proteins made in E. coli; settings: for IC50: membrane-embedded, 240 μM NADPH, read-out: IC50 on human NOXs, NOX2 (MCLA)
Protocol: IC50 determinations were performed as described, with the same aforementioned modifications for covalent inhibition. Briefly, 20 μg of NOX2-p22^phox membranes was added to a reaction mix with a 65 mM sodium phosphate buffer (pH 7.0), 0.5 μM FAD, 130 μM LiDS, 160 nM p67^phox, p47^phox, Rac1 Q61L, and 1 μM MCLA or 200 μM bovine cytochrome c. The estimated final protein concentration based on the heme’s absorbance was 60 nM. Compounds were incubated for 1 h at 25 °C, at varying concentrations. The reaction started by adding 240 μM NADPH, and measurements were taken by using a GloMax plate reader (Promega; MCLA) or a Cary 100 UV–vis spectrophotometer (Varian; cytochrome c).

[3] = system: csNOX5 dehydrogenase; assay: Intact protein mass spectrometry of csNOX5 dehydrogenase; assay type: binding, Cylindrospermum stagnale
Protocol: Approximately 1 mg mL^-1 protein was incubated with 300 μM FAD and 1 mM 9a at 4 °C for 1 h. A negative control reaction was performed by adding an equal volume of DMSO. Protein was denatured by adding 1% (v/v) formic acid. Chromatographic separation and mass spectrometry analysis were carried out as previously reported.[10] Analyses were carried out by ESI-qTOF-HRMS on an […] qTOF system (Sciex) embedding a Twin Sprayer ESI probe and coupled with an ExcionLC system (Sciex) controlled by SciexOS software v. 3.0.0. The injection volume was 10 μL (10 μg), and chromatographic separation was carried out with a bioZen WidePore C4 column (a 100 mm length, a 2.1 mm diameter, and a 2.6 μm particle size; Phenomenex).

[4] = system: BV2 cells; assay: qRT-PCR of iNOS, IL-1β and IL-6 transcripts in BV2 cells; assay type: cell-based, murine
Protocol: BV2 murine microglial cells were cultured in DMEM supplemented with 10% heat-inactivated FBS, 100 IU/mL penicillin G, […] streptomycin, and […] amphotericin B and grown at 37 °C in 5% CO2 and a humidified atmosphere. […]
BV2 cells were lysed in a Trizol reagent for isolation of RNA. A reverse transcription reaction was performed in a thermocycler (MJMini personal thermal cycler; Biorad) using an IScript Reverse Transcription Supermix (Biorad) according to the manufacturer’s protocol, under the following conditions: incubation at 25 ° C for 5 min, reverse transcription at 42 ° C for 30 min, and inactivation at 85 ° C for 5 min. Real-time PCR (rtPCR) was carried out in an I-Cycler IQ Multicolor rtPCR detection system (Biorad) using a SsoFast EvaGreen Supermix (Biorad) according to the manufacturer’s instructions. The PCR protocol consisted of 40 cycles of denaturation at 95 ° C for 30 s and annealing/extension at 60 ° C for 30 s. For quantification analysis, the comparative threshold cycle (Ct) method was used. The Ct values from each gene were normalized to the Ct value of GAPDH in the same RNA samples. Relative quantification was performed using the 2^–ΔΔCt method (Schmittgen and Livak, 2008) and expressed as a fold change in arbitrary values. Primers used are as follows: • iNOS fw: […]; rev: […]. • IL-1β fw: […]; rev: […]. • IL-6 fw: […]; rev: […].

[5] = 10 μM, LPS/IFN-γ, 48 h compound treatment

| Compound | IC50 [1] [µM] | IC50 [2] [µM] | increase in molecular weight of csNOX5 dehydrogenase after reaction ([3]; 1 mM inhibitor, 4 °C, 1 h, vs DMSO-treated protein) | covalent binding to csNOX5 dehydrogenase active-site cysteine ([3]; intact protein ESI-qTOF-HRMS) | decrease in IL-1β mRNA level [4, 5] [fold] | decrease in IL-6 mRNA level [4, 5] [fold] | decrease in iNOS mRNA level [4, 5] | effects on iNOS, IL-1β and IL-6 mRNA without inhibitor pretreatment ([4]; cells pre-stimulated with LPS/IFN-γ for 24h, then 10 µM compound for 24 h) | potency against NOX2 relative to VAS2870 (more powerful) ([2]; NOX2 membranes) [fold] | IC50 on human NOXs, NOX5 (AMPLEX RED) [1] |
| --- | --- | --- | --- | --- | --- | --- | --- | --- | --- | --- |
| CCCNC(=O)c1ccc(Cn2nnc3c(Sc4nc5ccccc5o4)ncnc32)cc1 [Compound 8a, (4-((7-Benzo[d]oxazol-2-yl-thio)-3H-[1,2,3]triazole[4,5-d]pyrimidin-3-yl)methyl)-N-(propyl)benzamide] | 6.5 ± 0.6 | 2.8 ± 0.05 | – | – | – | – | – | – | – | – |
| C#CCN(C)Cc1ccc(Cn2nnc3c(Sc4nc5ccccc5o4)ncnc32)cc1 [Compound 9a, N-(4-((7-(Benzo[d]oxazol-2-ylthio)-3H-[1,2,3]triazolo[4,5-d]pyrimidin-3-yl)methyl)benzyl)-N-methylprop-2-yn-1-amine] | 5.2 ± 0.1 | 0.567 ± 0.2 | 290 Da and 290.3 Da | covalent binding | 4 | 4 | over 10 fold | negligible | 2 | – |
| C#CCNC(=O)c1ccc(Cn2nnc3c(Sc4nc5ccccc5o4)ncnc32)cc1 [Compound 8b, (4-((7-Benzo[d]oxazol-2-yl-thio)-3H-[1,2,3]triazole[4,5-d]pyrimidin-3-yl)methyl)-N-(prop-2-in-1-yl)benzamide] | > 100 | 17.3 ± 2.6 | – | – | – | – | – | – | – | inactive |
